Structures can show the parent of a compound that is named as a salt.
Experiments:
[1] = target: Mer (phospho-Mer, MERTK-transfected 293A cells) (Homo sapiens (Human), UniProt Q12866); assay: Mer autophosphorylation ELISA in transient transfected 293A cells (Example H); assay type: cell-based; conditions: cellular activity; Mer autophosphorylation ELISA in transient transfected 293A cells
Summary of the method: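 Inhibition of cellular Mer autophosphorylation is determined in 293A cells transiently expressing human MERTK after 1 h compound exposure (8 concentrations, serum-free, 0.3% DMSO). Phospho-Mer in clarified lysates is measured by ELISA, with DMSO and reference-inhibitor wells defining the 100% and 0% activity limits.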

[2] = target: Human KDR (residues 790-1356) (Homo sapiens (Human), UniProt P35968); assay: Human KDR kinase assay, HTRF KinEase (Example B-2); assay type: biochemical; conditions: protocol of Example B-2 (other compounds)
Summary of the method: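 Human KDR residues 790-1356 (0.1 ng/well) in buffer with 5 mM MgCl2, 1 mM MnCl2, 1 mM DTT, biotinylated peptide substrate, ATP at Km (4.0 μM), 3% DMSO, 10 compound concentrations; 40 min, room temperature. EDTA stop, streptavidin-XL665/Eu-TK antibody HTRF read 665/620 nm; 4-parameter IC50.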

[3] = target: Human MET (residues 956-1390) (Homo sapiens (Human), UniProt P08581); assay: Human Met kinase assay, HTRF KinEase (Example D-2); assay type: biochemical; conditions: protocol of Example D-2 (other compounds); read-out: c-Met IC50
Summary of the method: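 IC50 values come from a 4-parameter logistic fit of the […] fluorescence ratio, set between DMSO (100%) and reference compound at 1 μM (0%). Reactions held MET 956-1390 at 0.1 ng/well, ATP at Km, biotinylated peptide, 5 mM MgCl2, 1 mM MnCl2, 1 mM DTT and 3% DMSO, and ran 40 min at room temperature before streptavidin-XL665/Eu-antibody detection.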

[4] = target: Human MER (residues 528-999) (Homo sapiens (Human), UniProt Q12866); assay: Human Mer kinase assay, HTRF KinEase (Example C-2); assay type: biochemical; conditions: protocol of Example C-2 (other compounds)
Summary of the method: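 IC50 values from 10 concentrations via 4-parameter logistic fit of […], with DMSO as 100% and 1 μM reference compound as 0% activity. Reaction: MER kinase domain 528-999, 1 ng/well, 40 μM ATP (Km), biotin peptide, 5 mM MgCl2, 1 mM DTT, 3% DMSO, room temperature 60 min; HTRF streptavidin-XL665/Eu-antibody detection.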

Chain of Mer (phospho-Mer, MERTK-transfected 293A cells) (Q12866 21-999): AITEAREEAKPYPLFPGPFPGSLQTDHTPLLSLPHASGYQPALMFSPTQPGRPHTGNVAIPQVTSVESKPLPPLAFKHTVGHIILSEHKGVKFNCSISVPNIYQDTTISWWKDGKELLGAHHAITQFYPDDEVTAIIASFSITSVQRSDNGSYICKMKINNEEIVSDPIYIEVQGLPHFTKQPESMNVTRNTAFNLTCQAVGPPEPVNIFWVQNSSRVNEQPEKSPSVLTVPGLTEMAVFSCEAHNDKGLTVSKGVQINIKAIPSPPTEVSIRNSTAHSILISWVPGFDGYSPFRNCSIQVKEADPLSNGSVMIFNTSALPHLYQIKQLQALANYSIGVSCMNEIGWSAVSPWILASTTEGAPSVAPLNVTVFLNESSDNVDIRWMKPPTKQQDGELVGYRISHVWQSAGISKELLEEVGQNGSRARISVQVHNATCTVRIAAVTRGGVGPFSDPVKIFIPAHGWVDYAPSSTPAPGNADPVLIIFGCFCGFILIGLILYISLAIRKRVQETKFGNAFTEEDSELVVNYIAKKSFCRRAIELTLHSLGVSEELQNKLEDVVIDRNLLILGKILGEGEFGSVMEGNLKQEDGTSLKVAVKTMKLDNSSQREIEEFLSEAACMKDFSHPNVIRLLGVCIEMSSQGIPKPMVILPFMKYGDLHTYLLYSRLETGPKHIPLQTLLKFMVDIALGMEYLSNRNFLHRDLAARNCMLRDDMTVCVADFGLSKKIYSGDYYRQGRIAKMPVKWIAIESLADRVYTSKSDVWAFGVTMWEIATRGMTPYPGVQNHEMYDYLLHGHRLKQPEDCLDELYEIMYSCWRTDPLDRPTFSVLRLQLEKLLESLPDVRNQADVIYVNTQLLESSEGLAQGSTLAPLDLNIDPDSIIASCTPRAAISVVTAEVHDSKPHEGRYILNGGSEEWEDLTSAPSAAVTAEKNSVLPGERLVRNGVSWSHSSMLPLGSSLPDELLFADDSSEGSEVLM
Chain of Human MET (residues 956-1390) (P08581 956-1390): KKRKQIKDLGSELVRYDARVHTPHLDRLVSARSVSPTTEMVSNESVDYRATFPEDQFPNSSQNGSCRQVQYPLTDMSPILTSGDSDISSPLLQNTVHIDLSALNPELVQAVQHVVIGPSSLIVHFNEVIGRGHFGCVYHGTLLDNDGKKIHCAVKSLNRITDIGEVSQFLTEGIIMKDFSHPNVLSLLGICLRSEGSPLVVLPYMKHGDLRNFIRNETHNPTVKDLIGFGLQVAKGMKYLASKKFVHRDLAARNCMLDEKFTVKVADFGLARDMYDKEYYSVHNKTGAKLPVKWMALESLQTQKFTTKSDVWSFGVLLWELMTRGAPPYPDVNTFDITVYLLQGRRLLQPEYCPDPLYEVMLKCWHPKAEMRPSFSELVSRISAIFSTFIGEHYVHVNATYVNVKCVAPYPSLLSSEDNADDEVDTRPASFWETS
Chain of Human MER (residues 528-999) (Q12866 528-999): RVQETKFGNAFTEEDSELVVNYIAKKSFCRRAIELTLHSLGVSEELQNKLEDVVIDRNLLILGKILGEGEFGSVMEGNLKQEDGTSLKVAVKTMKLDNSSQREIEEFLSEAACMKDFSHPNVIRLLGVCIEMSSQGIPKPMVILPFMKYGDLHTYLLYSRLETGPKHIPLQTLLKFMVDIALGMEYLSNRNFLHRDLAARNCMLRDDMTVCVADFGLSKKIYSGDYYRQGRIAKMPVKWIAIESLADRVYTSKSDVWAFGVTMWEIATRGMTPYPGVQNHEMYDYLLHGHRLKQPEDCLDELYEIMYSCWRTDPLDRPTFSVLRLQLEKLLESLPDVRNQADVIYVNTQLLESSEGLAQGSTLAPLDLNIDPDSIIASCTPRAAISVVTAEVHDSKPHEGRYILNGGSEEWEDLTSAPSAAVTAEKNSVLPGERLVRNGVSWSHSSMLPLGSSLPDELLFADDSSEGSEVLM
Chain of Human KDR (residues 790-1356) (P35968 790-1356): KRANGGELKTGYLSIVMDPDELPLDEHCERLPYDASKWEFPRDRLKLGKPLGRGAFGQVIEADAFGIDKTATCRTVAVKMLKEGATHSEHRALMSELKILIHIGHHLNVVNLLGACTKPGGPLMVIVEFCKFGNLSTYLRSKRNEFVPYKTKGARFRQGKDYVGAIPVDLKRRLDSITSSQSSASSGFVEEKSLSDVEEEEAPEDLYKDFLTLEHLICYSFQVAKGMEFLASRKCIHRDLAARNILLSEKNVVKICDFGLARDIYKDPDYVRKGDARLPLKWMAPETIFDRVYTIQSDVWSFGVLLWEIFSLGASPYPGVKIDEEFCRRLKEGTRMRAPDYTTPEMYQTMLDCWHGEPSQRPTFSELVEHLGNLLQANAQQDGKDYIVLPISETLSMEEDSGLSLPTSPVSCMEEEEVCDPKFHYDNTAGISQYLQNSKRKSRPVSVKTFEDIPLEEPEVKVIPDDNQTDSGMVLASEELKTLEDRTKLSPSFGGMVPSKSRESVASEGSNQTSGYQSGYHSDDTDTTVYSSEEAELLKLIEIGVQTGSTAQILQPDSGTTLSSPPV

SMILES | IC50 [1] | IC50 [2] | IC50 [3] | IC50 [4]
COc1cnc2c(Oc3ccc(NC(=O)c4c(C)n(C)cc(-c5ccc(F)cc5)c4=O)cc3F)ccnc2c1 [Compound 239, N-[3-Fluoro-4-[(7-methoxy-1,5-naphthyridin-4-yl)oxy]phenyl]-5-(4-fluorophenyl)-1,2-dimethyl-4-oxopyridine-3-carboxamide] | < 100 nM | > 300 nM | < 100 nM | < 100 nM
COc1ccc2nccc(Oc3ccc(NC(=O)c4c(C)nc(C)n(-c5ccc(F)cc5)c4=O)cc3F)c2n1 [Compound 233, N-[3-Fluoro-4-[(6-methoxy-1,5-naphthyridin-4-yl)oxy]phenyl]-1-(4-fluorophenyl)-2,4-dimethyl-6-oxopyrimidine-5-carboxamide] | < 100 nM | < 100 nM | 100 to 300 nM | < 100 nM
COc1cnc2c(Oc3ccc(NC(=O)c4cn(C)c(CO)c(-c5ccc(F)cc5)c4=O)cc3)ccnc2c1 [Compound 223, 5-(4-Fluorophenyl)-6-(hydroxymethyl)-N-[4-[(7-methoxy-1,5-naphthyridin-4-yl)oxy]phenyl]-1-methyl-4-oxopyridine-3-carboxamide] | < 100 nM | > 300 nM | < 100 nM | < 100 nM
COc1cc2nccc(Oc3ccc(NC(=O)c4cn(CC(F)(F)F)c(C)c(-c5ccc(F)cc5)c4=O)cc3F)c2cc1OC [Compound 259, N-[4-(6,7-Dimethoxyquinolin-4-yl)oxy-3-fluorophenyl]-5-(4-fluorophenyl)-6-methyl-4-oxo-1-(2,2,2-trifluoroethyl)pyridine-3-carboxamide] | < 100 nM | 100 to 300 nM | 100 to 300 nM | < 100 nM
COc1ccc2nccc(Oc3ccc(NC(=O)c4cnc(C)n(-c5ccc(F)cc5)c4=O)cc3F)c2n1 [Compound 232, N-[3-Fluoro-4-[(6-methoxy-1,5-naphthyridin-4-yl)oxy]phenyl]-1-(4-fluorophenyl)-2-methyl-6-oxopyrimidine-5-carboxamide] | < 100 nM | > 300 nM | < 100 nM | < 100 nM
COc1cnc2c(Oc3ccc(NC(=O)c4cn(CC(F)(F)F)c(C)c(-c5ccc(F)cc5)c4=O)cc3F)ccnc2c1 [Compound 261, N-[3-Fluoro-4-[(7-methoxy-1,5-naphthyridin-4-yl)oxy]phenyl]-5-(4-fluorophenyl)-6-methyl-4-oxo-1-(2,2,2-trifluoroethyl)pyridine-3-carboxamide] | < 100 nM | > 300 nM | < 100 nM | < 100 nM
COc1ccc2nccc(Oc3ccc(NC(=O)c4cnc(CO)c(-c5ccc(F)cc5)c4O)cc3F)c2n1 [Compound 231, N-[3-Fluoro-4-[(6-methoxy-1,5-naphthyridin-4-yl)oxy]phenyl]-5-(4-fluorophenyl)-4-hydroxy-6-(hydroxymethyl)pyridine-3-carboxamide] | < 100 nM | 100 to 300 nM | < 100 nM | < 100 nM
COc1cnc2c(Oc3ccc(NC(=O)c4c(C)ncc(-c5ccc(F)cc5)c4O)cc3)ccnc2c1 [Compound 236, 5-(4-Fluorophenyl)-4-hydroxy-N-[4-[(7-methoxy-1,5-naphthyridin-4-yl)oxy]phenyl]-2-methylpyridine-3-carboxamide] | < 100 nM | < 100 nM | < 100 nM | < 100 nM
COc1cc2nccc(Oc3ccc(NC(=O)c4c(C)ncc(-c5ccc(F)cc5)c4O)cc3)c2nc1OC [Compound 235, N-[4-[(6,7-Dimethoxy-1,5-naphthyridin-4-yl)oxy]phenyl]-5-(4-fluorophenyl)-4-hydroxy-2-methylpyridine-3-carboxamide] | < 100 nM | < 100 nM | < 100 nM | < 100 nM
COc1cnc2c(Oc3ccc(NC(=O)c4ccc(C)n(-c5ccc(F)cc5)c4=O)cc3)ccnc2c1 [Compound 216, 1-(4-Fluorophenyl)-N-[4-[(7-methoxy-1,5-naphthyridin-4-yl)oxy]phenyl]-6-methyl-2-oxopyridine-3-carboxamide] | < 100 nM | < 100 nM | < 100 nM | < 100 nM
COc1cnc2c(Oc3ccc(NC(=O)c4c(C)nc(C)n(-c5ccc(F)cc5)c4=O)cc3)ccnc2c1 [Compound 258, 1-(4-Fluorophenyl)-N-[4-[(7-methoxy-1,5-naphthyridin-4-yl)oxy]phenyl]-2,4-dimethyl-6-oxopyrimidine-5-carboxamide] | < 100 nM | < 100 nM | < 100 nM | < 100 nM

Now from value to compound:

IC50 [1] | IC50 [2] | IC50 [3] | IC50 [4] | SMILES
< 100 nM | < 100 nM | < 100 nM | < 100 nM | COc1cc2nccc(Oc3ccc(NC(=O)c4cn(C)c(C)c(-c5ccccc5)c4=O)cc3F)c2nc1OC [Compound 36, N-[4-[(6,7-Dimethoxy-1,5-naphthyridin-4-yl)oxy]-3-fluorophenyl]-1,6-dimethyl-4-oxo-5-phenylpyridine-3-carboxamide hydrochloride]
< 100 nM | 100 to 300 nM | 100 to 300 nM | < 100 nM | CCc1nc(C)c(-c2ccc(F)cc2C)c(O)c1C(=O)Nc1ccc(Oc2ccnc3cc(OC)c(OC)nc23)c(F)c1 [Compound 202, N-[4-[(6,7-Dimethoxy-1,5-naphthyridin-4-yl)oxy]-3-fluorophenyl]-2-ethyl-5-(4-fluoro-2-methylphenyl)-4-hydroxy-6-methylpyridine-3-carboxamide]
< 100 nM | < 100 nM | < 100 nM | < 100 nM | CCc1nc(C)c(-c2ccc(F)cc2)c(O)c1C(=O)Nc1ccc(Oc2ccnc3cc(OC)c(OC)nc23)cc1 [Compound 197, N-[4-[(6,7-Dimethoxy-1,5-naphthyridin-4-yl)oxy]phenyl]-2-ethyl-5-(4-fluorophenyl)-4-hydroxy-6-methylpyridine-3-carboxamide]
< 100 nM | > 300 nM | < 100 nM | < 100 nM | COc1ccc2nccc(Oc3ccc(NC(=O)c4n[nH]c(C)c(-c5ccc(F)cc5C)c4=O)cc3F)c2n1 [Compound 230, N-[3-Fluoro-4-[(6-methoxy-1,5-naphthyridin-4-yl)oxy]phenyl]-5-(4-fluoro-2-methylphenyl)-6-methyl-4-oxo-1H-pyridazine-3-carboxamide]
< 100 nM | < 100 nM | < 100 nM | < 100 nM | CCc1nc(C)c(-c2ccc(F)cc2)c(O)c1C(=O)Nc1ccc(Oc2ccnc3cc(OC)c(OC)nc23)c(F)c1 [Compound 179, N-[4-[(6,7-Dimethoxy-1,5-naphthyridin-4-yl)oxy]-3-fluorophenyl]-2-ethyl-5-(4-fluorophenyl)-4-hydroxy-6-methylpyridine-3-carboxamide]
< 100 nM | < 100 nM | < 100 nM | < 100 nM | COCCOc1nc2c(Oc3ccc(NC(=O)c4c(COC)nc(C)c(-c5ccc(F)cc5)c4O)cc3F)ccnc2cc1OC [Compound 199, N-[3-Fluoro-4-[[7-methoxy-6-(2-methoxyethoxy)-1,5-naphthyridin-4-yl]oxy]phenyl]-5-(4-fluorophenyl)-4-hydroxy-2-(methoxymethyl)-6-methylpyridine-3-carboxamide]
< 100 nM | 100 to 300 nM | 100 to 300 nM | < 100 nM | CCc1nc(C)c(-c2ccc(F)cc2C)c(O)c1C(=O)Nc1ccc(Oc2ccnc3cc(OC)cnc23)c(F)c1 [Compound 204, 2-Ethyl-N-[3-fluoro-4-[(7-methoxy-1,5-naphthyridin-4-yl)oxy]phenyl]-5-(4-fluoro-2-methylphenyl)-4-hydroxy-6-methylpyridine-3-carboxamide]
< 100 nM | > 300 nM | < 100 nM | < 100 nM | COc1cnc2c(Oc3ccc(NC(=O)c4nnc(C)c(-c5ccc(F)cc5C)c4O)cc3F)ccnc2c1 (single isomer, unassigned) [Compound 249C, N-[3-Fluoro-4-[(7-methoxy-1,5-naphthyridin-4-yl)oxy]phenyl]-5-(4-fluoro-2-methylphenyl)-4-hydroxy-6-methylpyridazine-3-carboxamide]
< 100 nM | < 100 nM | < 100 nM | < 100 nM | COc1cc2nccc(Oc3ccc(NC(=O)c4cn(C)cc(-c5cccc(F)c5)c4=O)cc3F)c2nc1OC [Compound 35, N-[4-[(6,7-Dimethoxy-1,5-naphthyridin-4-yl)oxy]-3-fluorophenyl]-5-(3-fluorophenyl)-1-methyl-4-oxopyridine-3-carboxamide hydrochloride]

— US12371428B2 (Exelixis, Inc., priority 2019, dated 2025)
